{"source": "a melting point compilation (Tetko et al.; mined from patent text by program, amines drawn as free bases though some values may be those of a salt)"}
{"units": {"melting point": "°C"}}
{"smiles": "CC(C=CC1=C(C)C(=O)CC1(C)C)=CC=O", "melting point": "91 to 93"}
{"smiles": "COc1ccc(Nc2nc(Cl)nc(Cl)n2)cc1F", "melting point": 134}
{"smiles": "N#Cc1ccc(N2CCN(c3ccc(O)cc3)CC2)cc1", "melting point": "258 to 262"}
{"smiles": "COc1cc(NC(=O)N(Cc2ccccc2)C2CCCCC2)c(OC(C)=O)c(C(C)(C)C)c1", "melting point": "129 to 132"}
{"smiles": "Cc1ccnc(Sc2nc(-c3ccc(Cl)cc3)c(CCC(=O)O)o2)n1", "melting point": "174 to 175"}
{"smiles": "CCOC(=O)c1ccc(-c2cc(-c3ccc4c(c3)C(C)(C)CCC4(C)C)ccc2OS(=O)(=O)C(F)(F)F)cc1", "melting point": "110 to 113"}
{"smiles": "COc1ccc2ccc(C(N)=O)c(OC)c2c1", "melting point": "134 to 136"}
{"smiles": "CCOC(=O)N(NC(N)=O)c1ccc(CC[Si](OCC)(OCC)OCC)cc1", "melting point": "123 to 124"}
{"smiles": "OCCOc1cccc(-c2n[nH]c3c2Cc2ccccc2-3)c1", "melting point": "203 to 205"}
{"smiles": "CCCCS(=O)(=O)NC(=O)CCc1cc(OC(C)C)nn1Cc1ccc(Cl)cc1Cl", "melting point": "133 to 134"}
{"smiles": "COc1ccc(NC(=O)c2ccccc2C(c2ccc(O)cc2)c2ccc(O)cc2)c(OC)c1", "melting point": "122 to 124"}
{"smiles": "O=C(O)CCSC(=S)NCc1ccc(Cl)cc1", "melting point": "104 to 105"}
{"smiles": "COc1ncccc1Cc1cc2cccc(-c3cccc(C(=O)NCCO)c3)c2s1", "melting point": "121 to 122"}
{"smiles": "CC#CCOc1ccc(S(=O)(=O)C2(C(=O)O)CCN(C(C)C)CC2)cc1", "melting point": 233}
{"smiles": "COc1ccc([N+](=O)[O-])c(C=CN2CCCC2)c1", "melting point": "71 to 72"}
{"smiles": "COc1cc2c(c(OC)c1)C1=C(CC2)C2=CCC(=O)C2(C)CC1", "note": "(stereo not drawn)", "melting point": "120 to 121"}
{"smiles": "NC(=S)N1CCN(c2ccc(SC(CCc3ccc(Cl)cc3)Cn3ccnc3)cc2)CC1", "note": "(stereo not drawn)", "melting point": "130 to 133"}
{"smiles": "O=C(NCc1ccccc1)C12CC3CC(CC(C3)C1)C2", "melting point": "170 to 172"}
{"smiles": "O=Cc1ccc2c(c1)c1ccccc1n2CCCCCCCCCCn1c2ccccc2c2cc(C=O)ccc21", "melting point": 122}
{"smiles": "C#CC1(OC(=O)C(C)C)C(COC(=O)c2ccc(Cl)cc2)OC(n2ccc(N)nc2=O)C1OC(=O)C(C)C", "note": "(stereo not drawn)", "melting point": "106 to 108"}
{"smiles": "CC(CO)(Oc1ccc(C(=O)c2ccc(Cl)cc2)cc1)C(=O)O", "note": "(stereo not drawn)", "melting point": "172 to 174"}
{"smiles": "CC(=O)c1ccc2occ(C#N)c(=O)c2c1", "melting point": "170 to 172"}
{"smiles": "CN1CCN2C(=O)c3ccccc3C12c1ccccc1", "note": "(stereo not drawn)", "melting point": "120 to 122"}
{"smiles": "C1=C(CCC2=Cc3ccccc32)c2ccccc21", "melting point": "86 to 87"}
{"smiles": "N#Cc1ccc(-c2cnc(F)c(OC3SCC(O)C(O)C3O)c2)cc1", "note": "(stereo not drawn)", "melting point": 220}
{"smiles": "O=C1CCC2C3Cc4ccc(O)cc4C2(CCN3CC2CC2)C1", "note": "(stereo not drawn)", "melting point": "125 to 127"}
{"smiles": "CCOC(=O)C(=C(c1ccc(F)cc1)c1ccc(F)cc1)n1nnnc1C", "melting point": "103 to 104"}
{"smiles": "COc1ccc(C=CC(=O)c2ccc(OCC(O)CN3CCN(c4ccccc4)CC3)cc2)cc1OC", "note": "(stereo not drawn)", "melting point": "126 to 127"}
{"smiles": "C[C@@H](C(N)=O)c1ccc(NS(=O)(=O)Cc2ccccc2)cc1", "melting point": "68 to 70"}
{"smiles": "Cc1c[nH]c(-c2ccc(OCC(O)CO)cc2)n1", "note": "(stereo not drawn)", "melting point": "196 to 199"}
{"smiles": "Cc1ccncc1C(O)c1ccc2cc(CO)ccc2c1", "note": "(stereo not drawn)", "melting point": "151 to 153"}
{"smiles": "CC(=O)c1cccc2ccc(CC#N)cc12", "melting point": 88}
{"smiles": "N#Cc1c(Cl)cccc1C(Cl)(Cl)Cl", "melting point": "121 to 122"}
{"smiles": "c1cc2nc3c(n2nc1N1CCOCC1)CCCC3", "melting point": 188}
{"smiles": "C1=Cc2cccnc2Nc2ncccc21", "melting point": "126 to 129"}
{"smiles": "CC(C)(C)NCC(O)c1ccc(N)c(C#N)c1F", "note": "(stereo not drawn)", "melting point": "150 to 151"}
{"smiles": "OC(CN1CCN(C(c2ccccc2)c2ccccc2)CC1)c1ccc(OCc2ccccc2)cc1OCc1ccccc1", "note": "(stereo not drawn)", "melting point": 151}
{"smiles": "COC(=O)NNC(=O)c1ccc([N+](=O)[O-])o1", "melting point": 155}
{"smiles": "Cn1cncc1C(O)(c1ccc(Cl)cc1)c1ccc2c(c1)C(c1cccc(Cl)c1)OCC(=S)N2", "note": "(stereo not drawn)", "melting point": "> 300"}
{"smiles": "Cn1cc(-c2ccccc2)c(=O)c(-c2ccc(-c3ccccc3)cc2)c1", "melting point": "186 to 190"}
{"smiles": "COc1cc2c(=O)n3nc(C(=O)O)cc3n(C)c2cc1OC", "melting point": "284 to 285"}
{"smiles": "COc1cc(C(C)=O)ccc1OCCCN1CCC(c2noc3ccccc23)CC1", "melting point": "102 to 104"}
{"smiles": "O=C(c1ccccc1)c1cc[nH]c1", "melting point": "96 to 97"}
{"smiles": "CCOC(=O)c1cccc(NC(=O)c2cc(-c3ccc(F)cc3)oc2C)c1", "melting point": "171 to 172"}
{"smiles": "CN(Sc1ccccc1)C(=O)Oc1cccc2c1OC(C)(C)C2", "melting point": 66}
{"smiles": "Cc1oc(-c2ccc(F)cc2)nc1CO", "melting point": "153 to 155"}
{"smiles": "COc1cc(-c2ccc([N+](=O)[O-])cn2)cc(OC)c1OC", "melting point": "134 to 136"}
{"smiles": "O=c1c2c(O)cc(O)cc2ncn1-c1ccc(O)cc1", "melting point": "240 to 245"}
{"smiles": "CCCOc1c(OCCCN2C(=O)c3ccccc3C2=O)cc(C2CCC(c3cc(OC)c(OC)c(OC)c3)O2)cc1S(=O)(=O)CCC", "note": "(stereo not drawn)", "melting point": "195 to 196"}
{"smiles": "COc1cc(C=O)ccc1OCc1nc(-c2ccccc2)cn1C", "melting point": "128 to 129"}
{"smiles": "CN1C(=O)CN=C(c2ccccc2F)c2cc(NC(=O)NC(C)(C)CO)ccc21", "melting point": "162 to 176"}
{"smiles": "COc1ccc(Cc2nc3cccc([N+](=O)[O-])c3o2)cc1OC1CCCC1", "melting point": "95 to 98.5"}
{"smiles": "COc1ccc(C(=O)Nc2ccccc2)cc1NCc1ccc(C(=O)O)cc1", "melting point": "> 240"}
{"smiles": "Cc1nc(N2CCN(CC3CC3)C2=O)sc1C(=O)NCc1ccccn1", "melting point": "148 to 151"}
{"smiles": "CCOC(=O)c1cnc2c(-c3cccc(Cl)c3)cnn2c1", "melting point": 136}
{"smiles": "CC(C)Nc1ccc(O)cc1", "melting point": 143}
{"smiles": "C=CCCCC(C#N)(C#N)Cc1ccc(C#N)cc1", "melting point": 91.5}
{"smiles": "Cc1cccc2c(-c3ccccc3)c([N+](=O)[O-])oc12", "melting point": "122 to 127"}
{"smiles": "N#Cc1cccc(C(=O)NC2CCCNC(=O)C2)c1", "note": "(stereo not drawn)", "melting point": "221 to 222"}
{"smiles": "Clc1ccc2c(NCCC34C=CCN3CCC4)ccnc2c1", "note": "(stereo not drawn)", "melting point": "124 to 125"}
{"smiles": "NC(=O)CN1C(=O)COc2cc(F)c([N+](=O)[O-])cc21", "melting point": "220 to 226"}
{"smiles": "COC(=O)COc1cc2c(c(Cl)c1Cl)C(=O)C(c1ccccc1)C2", "note": "(stereo not drawn)", "melting point": "152 to 153"}
{"smiles": "O=C(NS(=O)(=O)c1cc(C(F)(F)F)ccc1Cl)c1cn2cc(C(F)(F)F)cnc2n1", "melting point": "211 to 212"}
{"smiles": "CCOC(=O)c1c(CN2CCOCC2)nc2cc(OC)c(OC)cc2c1-c1ccccc1OC", "melting point": "153 to 154"}
{"smiles": "CCN(CCCCCC(C)O)C(=O)CCC(=O)c1ccc(NS(C)(=O)=O)cc1", "note": "(stereo not drawn)", "melting point": "78 to 80"}
{"smiles": "CC(C)(C)c1cc(C[C@@H]2N[C@@H](c3ccccc3)[C@@H](c3ccccc3)OC2=O)ccc1O", "melting point": "76 to 80"}
{"smiles": "O=[N+]([O-])c1ccc(CCN2CCN(c3cc(Cl)nnc3Cl)CC2)c([N+](=O)[O-])c1", "melting point": "145 to 146"}
{"smiles": "CCCCC(C(C)C)C(CN)CC(=O)O", "note": "(stereo not drawn)", "melting point": "160 to 170"}
{"smiles": "Cc1c(-c2ccncc2)[nH]c2c1C(=O)CC(C)C2", "note": "(stereo not drawn)", "melting point": "247 to 248"}
{"smiles": "O=C1CC2(CCCC2)C(=O)N1c1cc(Cc2n[nH]c(=O)c3ccccc23)ccc1F", "melting point": "215 to 220"}
{"smiles": "NC(=NCC(F)(F)F)Nc1cncc(Cl)n1", "melting point": "139 to 140"}
{"smiles": "CC(C)c1cc(-c2ccncc2)c(-c2ccc(F)cc2)n1CCC1CC(O)CC(=O)O1", "note": "(stereo not drawn)", "melting point": "174 to 176"}
{"smiles": "NNc1ncccc1-c1cccnc1", "melting point": "104 to 107"}
